Experiments:
[1] = test system: vaginal epithelial cells; assay: Effect on mitosis of vaginal epithelial cells in mice; type: in vivo; settings: 15 mg/kg by gavage, once a day for 3 days; mitoses per 100 fundus cells
Description: 60 female NIH mice of 27 g±2 g were selected. After being intraperitoneally injected with diethylstilbesrolum for 3 days continuously, 0.2 mg/day for each animal, all the mice were left in estrum interval. From the 4th day, the mice were randomly divided into four groups, 15 mice each. The mice of the four groups were administrated for three days by gavage with 150 mg/kg of total coumarins, 75 mg/kg of total coumarins, 15 mg/kg of anthralin and 15 ml/kg of physiological saline, respectively, once one day. The last administration was carried out at 8:00 am in order to avoid the interference of various administration rhythms between day and night in the mice to the test result. At 9:00 am, 2 mg/kg of colchicine was injected to the mice to make the mitosis of vaginal epithelial cells stopped at the middle cycle of M phase.
The mice were killed at 2 pm. A sample from the vagina of the animal was taken out and fixed in a 10% formaldehyde solution. A slice of tissue was observed under an optical microscope. The number of mitosis per 300 fundus cells was counted to obtain an average number of mitosis among 100 fundus cells, which was regarded as the index of mitosis of vaginal epithelial cells.

[2] = test system: passive cutaneous anaphylaxis (PCA) of rats; assay: Inhibition of passive cutaneous anaphylaxis (PCA) of rats; type: in vivo; settings: 15 mg/kg by gavage, 3 days
Description: Hair on the back of 40 SD rats, 180 g±10 was shaved off. 0.2 ml of a diluted rat-antiserum (1:10) was hypodermically injected into each rat through two places on the back, 0.1 ml for each place. After being injected, the rats were di vided randomly into four groups, which were administered by gavage with 75 mg/kg of total coumarins, 150 mg/kg of total coumarins, 15 mg/kg of anthralin and 15 ml/kg of distilled water for 3 days, once per day. After the injection with the rat-antiserum 48 hours, 1 ml of 0.5% evans blue, […], was intravenously injected into the rats through the caudal vein. The rats were killed in 20 minutes. A piece of skin with blue speckles was taken out from the back, and immersed in 5 ml solution of acetone/physiological saline (acetone:physiological saline=7-3 v/v) for 24 hs. After centrifugation; the supernatant was taken for measuring the optical density (OD) at 590 nm. Inhibition rate was obtained in accordance with the following equation. […] Inhibition (%)=[OD(control)−OD(drug)]×100%/OD(control)

O=C1c2c(O)cccc2Cc2cccc(O)c21 [Anthralin, anthralin]
Index of Mitosis % [1]: 13.4 ± 2.1 %
OD ([2]; OD at 590 nm of evans blue skin extract): 0.043 ± 0.25
inhibition at 15 mg/kg ([2]; Rattus norvegicus, po, 72 h): 51.7%
